# Experimental data taken from ChEMBL document CHEMBL5360570, “Discovery of pyrazolo[3,4-b]pyridine derivatives as novel and potent Mps1 inhibitors for the treatment of cancer” (Eur J Med Chem, 2023).
# Legend:
# [1] = target: Serine/threonine-protein kinase MARK1 (Homo sapiens) (UniProt Q9P0L2); experiment: Inhibition of MARK1 (unknown origin) assessed as residual activity at 1 uM relative to control
# [2] = system: MCF7; experiment: Antiproliferative activity against human MCF7 cells assessed inhibition of cell growth incubated for 72 hrs by CCK-8 assay; format: functional, cell-based; conditions: MCF7, 72 h
# [3] = target: Tyrosine-protein kinase Fes/Fps (Homo sapiens) (UniProt P07332); experiment: Inhibition of FES (unknown origin) assessed as residual activity at 1 uM relative to control
# Chain of Tyrosine-protein kinase Fes/Fps (Homo sapiens) (P07332 whole entry): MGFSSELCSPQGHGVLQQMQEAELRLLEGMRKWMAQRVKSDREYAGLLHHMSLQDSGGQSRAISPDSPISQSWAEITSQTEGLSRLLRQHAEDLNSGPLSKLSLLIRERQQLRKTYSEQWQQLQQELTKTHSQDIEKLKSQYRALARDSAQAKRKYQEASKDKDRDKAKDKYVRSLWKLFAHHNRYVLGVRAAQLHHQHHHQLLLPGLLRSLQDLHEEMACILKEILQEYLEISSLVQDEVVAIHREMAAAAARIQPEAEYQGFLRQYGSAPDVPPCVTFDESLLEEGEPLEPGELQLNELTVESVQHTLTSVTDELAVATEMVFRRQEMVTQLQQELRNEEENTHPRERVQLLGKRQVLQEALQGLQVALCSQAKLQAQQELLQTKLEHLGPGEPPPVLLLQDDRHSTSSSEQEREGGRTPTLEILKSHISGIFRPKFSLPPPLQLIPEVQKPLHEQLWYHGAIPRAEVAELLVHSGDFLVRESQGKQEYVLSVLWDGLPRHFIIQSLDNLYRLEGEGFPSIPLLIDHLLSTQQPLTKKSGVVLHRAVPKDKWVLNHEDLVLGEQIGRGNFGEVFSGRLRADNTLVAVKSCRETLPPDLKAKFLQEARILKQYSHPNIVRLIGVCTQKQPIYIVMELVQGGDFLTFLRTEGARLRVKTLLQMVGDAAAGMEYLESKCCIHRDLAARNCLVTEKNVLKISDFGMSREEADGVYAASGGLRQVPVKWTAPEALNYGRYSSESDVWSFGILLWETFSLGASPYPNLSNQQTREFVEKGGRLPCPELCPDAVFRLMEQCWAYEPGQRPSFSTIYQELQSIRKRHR
# [4] = system: ALK tyrosine kinase receptor (Homo sapiens), Q9UM73 [L1152R]; experiment: Inhibition of ALK L1152R mutant (unknown origin) assessed as residual activity at 1 uM relative to control
# Chain of ALK tyrosine kinase receptor (Homo sapiens), Q9UM73 [L1152R] (Q9UM73 whole entry L1152R): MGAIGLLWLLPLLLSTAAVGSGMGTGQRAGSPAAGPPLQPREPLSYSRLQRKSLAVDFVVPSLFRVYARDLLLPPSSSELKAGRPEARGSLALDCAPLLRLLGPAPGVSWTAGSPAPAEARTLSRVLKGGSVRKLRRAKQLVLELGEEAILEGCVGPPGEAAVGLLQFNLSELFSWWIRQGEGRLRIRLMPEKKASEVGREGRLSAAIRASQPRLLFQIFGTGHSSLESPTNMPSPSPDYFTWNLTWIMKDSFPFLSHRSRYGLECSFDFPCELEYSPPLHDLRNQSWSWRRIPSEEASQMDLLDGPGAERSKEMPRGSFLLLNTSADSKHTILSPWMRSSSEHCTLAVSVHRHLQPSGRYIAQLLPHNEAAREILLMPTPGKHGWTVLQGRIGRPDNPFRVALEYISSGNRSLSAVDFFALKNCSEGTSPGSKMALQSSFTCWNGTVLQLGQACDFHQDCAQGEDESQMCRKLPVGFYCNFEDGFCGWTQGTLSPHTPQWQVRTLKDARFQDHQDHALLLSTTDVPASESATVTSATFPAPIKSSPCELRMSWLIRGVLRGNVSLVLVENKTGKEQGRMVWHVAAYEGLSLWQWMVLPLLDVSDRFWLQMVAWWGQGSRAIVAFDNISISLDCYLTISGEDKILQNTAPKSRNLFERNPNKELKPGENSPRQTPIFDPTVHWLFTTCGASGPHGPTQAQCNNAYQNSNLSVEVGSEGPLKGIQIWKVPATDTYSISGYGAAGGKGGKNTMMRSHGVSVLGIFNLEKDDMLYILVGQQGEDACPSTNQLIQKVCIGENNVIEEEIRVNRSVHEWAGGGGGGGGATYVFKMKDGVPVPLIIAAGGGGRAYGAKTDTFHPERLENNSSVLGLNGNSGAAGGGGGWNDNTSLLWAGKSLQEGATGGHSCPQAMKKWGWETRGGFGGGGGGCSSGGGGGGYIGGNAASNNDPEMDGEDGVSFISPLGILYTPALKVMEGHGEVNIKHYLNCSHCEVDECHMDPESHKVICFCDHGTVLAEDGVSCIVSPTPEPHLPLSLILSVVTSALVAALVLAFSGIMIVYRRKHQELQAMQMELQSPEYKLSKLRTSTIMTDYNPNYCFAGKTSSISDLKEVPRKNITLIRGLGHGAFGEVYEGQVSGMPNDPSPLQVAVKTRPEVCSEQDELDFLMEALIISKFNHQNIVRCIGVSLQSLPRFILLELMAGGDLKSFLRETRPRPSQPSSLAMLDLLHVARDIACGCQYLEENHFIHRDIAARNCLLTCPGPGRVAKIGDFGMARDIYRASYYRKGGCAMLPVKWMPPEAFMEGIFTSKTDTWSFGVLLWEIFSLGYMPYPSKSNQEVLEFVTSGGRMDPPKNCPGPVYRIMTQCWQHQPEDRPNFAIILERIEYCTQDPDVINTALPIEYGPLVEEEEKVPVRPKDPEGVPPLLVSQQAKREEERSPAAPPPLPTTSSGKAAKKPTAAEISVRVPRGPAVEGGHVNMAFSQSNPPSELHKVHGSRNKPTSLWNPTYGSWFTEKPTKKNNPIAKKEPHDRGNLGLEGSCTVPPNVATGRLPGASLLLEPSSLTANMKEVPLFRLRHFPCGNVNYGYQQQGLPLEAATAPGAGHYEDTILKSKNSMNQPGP
# [5] = system: MDA-MB-468; experiment: Antitumor activity against human MDA-MB-468 cells xenografted in BALB/c nude mouse assessed as tumor growth inhibition at 60 mg/kg, po administered once daily for 21 days; format: functional; conditions: MDA-MB-468, 504 h, time 21 day, read-out: TGI
# [6] = system: ALK tyrosine kinase receptor (Homo sapiens), Q9UM73 [G1202R]; experiment: Inhibition of ALK G1202R mutant (unknown origin) assessed as residual activity at 1 uM relative to control
# [7] = system: ALK tyrosine kinase receptor (Homo sapiens), Q9UM73 [R1275Q]; experiment: Inhibition of ALK R1275Q mutant (unknown origin) assessed as residual activity at 1 uM relative to control
# [8] = Metabolic stability in human microsome assessed as intrinsic clearance preincubated for 10 mins followed by NADPH addition and measured upto 60 mins by LC-MS/MS analysis; format: ADME; conditions: microsomes, time < 70 min
# [9] = system: HT-29; experiment: Antiproliferative activity against human HT-29 cells assessed inhibition of cell growth incubated for 72 hrs by CCK-8 assay; format: functional, cell-based; conditions: HT-29, 72 h
# [10] = system: ALK tyrosine kinase receptor (Homo sapiens), Q9UM73 [L1196M]; experiment: Inhibition of ALK L1196M mutant (unknown origin) assessed as residual activity at 1 uM relative to control
# [11] = target: Focal adhesion kinase 1 (Homo sapiens) (UniProt Q05397); experiment: Inhibition of PTK2 (unknown origin) assessed as residual activity at 1 uM relative to control
# [12] = target: NUAK family SNF1-like kinase 1 (Homo sapiens) (UniProt O60285); experiment: Inhibition of ARK5 (unknown origin) assessed as residual activity at 1 uM relative to control
# [13] = target: ALK-TFG (Homo sapiens) (UniProt Q9UM73+Q92734); experiment: Inhibition of ALK-TFG (unknown origin) assessed as residual activity at 1 uM relative to control; format: protein assay
# [14] = MRT (0 to infinity) in Sprague-Dawley rat at 10 mg/kg, po measured upto 24 hrs by LC-MS/MS analysis; format: ADME, organism-based; conditions: in vivo
# [15] = AUC (0 to t) in Sprague-Dawley rat at 2 mg/kg, iv measured upto 24 hrs by LC-MS/MS analysis; format: ADME, organism-based; design: dose 2 mg/kg, time < 24 hrs, route iv; conditions: in vivo
# [16] = target: NUAK family SNF1-like kinase 2 (Homo sapiens) (UniProt Q9H093); experiment: Inhibition of SNARK (unknown origin) assessed as residual activity at 1 uM relative to control
# Chain of NUAK family SNF1-like kinase 2 (Homo sapiens) (Q9H093 whole entry): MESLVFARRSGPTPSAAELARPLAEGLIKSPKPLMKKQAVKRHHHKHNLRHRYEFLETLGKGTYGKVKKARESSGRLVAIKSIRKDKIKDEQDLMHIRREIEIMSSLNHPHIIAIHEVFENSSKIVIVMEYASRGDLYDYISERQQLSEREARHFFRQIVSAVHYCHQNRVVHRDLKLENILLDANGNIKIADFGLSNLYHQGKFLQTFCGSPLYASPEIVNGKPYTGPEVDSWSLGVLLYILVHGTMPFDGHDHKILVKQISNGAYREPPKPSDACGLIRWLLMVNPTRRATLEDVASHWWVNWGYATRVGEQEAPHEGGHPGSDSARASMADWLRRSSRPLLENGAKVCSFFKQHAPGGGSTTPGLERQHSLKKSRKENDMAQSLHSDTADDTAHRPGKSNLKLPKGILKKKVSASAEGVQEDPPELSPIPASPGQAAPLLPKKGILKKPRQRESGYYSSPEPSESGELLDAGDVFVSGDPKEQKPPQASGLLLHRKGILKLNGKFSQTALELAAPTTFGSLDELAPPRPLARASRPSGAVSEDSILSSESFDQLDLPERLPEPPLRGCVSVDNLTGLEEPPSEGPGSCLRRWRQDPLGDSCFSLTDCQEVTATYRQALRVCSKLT
# [17] = target: ALK-TPM1 (Homo sapiens) (UniProt Q9UM73+P09493); experiment: Inhibition of ALK-TPM1 (unknown origin) assessed as residual activity at 1 uM relative to control; format: protein assay
# Chain of ALK-TPM1 (Homo sapiens) (P09493 whole entry, looked up): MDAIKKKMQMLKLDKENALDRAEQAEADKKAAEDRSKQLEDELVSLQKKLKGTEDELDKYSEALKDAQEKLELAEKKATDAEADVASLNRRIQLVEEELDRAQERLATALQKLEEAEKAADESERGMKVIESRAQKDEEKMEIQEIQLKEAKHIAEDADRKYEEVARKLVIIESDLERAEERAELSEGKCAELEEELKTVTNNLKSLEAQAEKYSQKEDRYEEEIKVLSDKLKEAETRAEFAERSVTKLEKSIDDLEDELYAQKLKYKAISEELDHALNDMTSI
# Chain of ALK-TPM1 (Homo sapiens) (Q9UM73 whole entry, looked up): as the sequence (Q9UM73 whole entry L1152R) above, with R1152L counted along it
# [18] = Metabolic stability in human liver microsome assessed as parent compound remaining preincubated for 10 mins followed by NADPH addition and measured at 5 mins by LC-MS/MS analysis; format: ADME; conditions: liver microsomes, time 15 min, read-out: Stability
# [19] = system: Fibroblast growth factor receptor 2 (Homo sapiens), P21802 [K526E]; experiment: Inhibition of FGFR2 K526E mutant (unknown origin) assessed as residual activity at 1 uM relative to control
# [20] = Half life in Sprague-Dawley rat at 10 mg/kg, po measured upto 24 hrs by LC-MS/MS analysis; format: ADME, organism-based; conditions: in vivo
# [21] = system: ALK tyrosine kinase receptor (Homo sapiens), Q9UM73 [C1156Y]; experiment: Inhibition of ALK C1156Y mutant (unknown origin) assessed as residual activity at 1 uM relative to control
# [22] = target: Macrophage colony-stimulating factor 1 receptor (Homo sapiens) (UniProt P07333); experiment: Inhibition of FMS (unknown origin) assessed as residual activity at 1 uM relative to control
# [23] = target: T1, Dual specificity protein kinase TTK (Homo sapiens, UniProt P33981); experiment: Inhibition of Mps1 (unknown origin) pretreated for 10 mins followed by substrate addition and measured after 60 mins in presence of ATP by ADP-glo kinase assay
# T1 sequence (P33981 whole entry): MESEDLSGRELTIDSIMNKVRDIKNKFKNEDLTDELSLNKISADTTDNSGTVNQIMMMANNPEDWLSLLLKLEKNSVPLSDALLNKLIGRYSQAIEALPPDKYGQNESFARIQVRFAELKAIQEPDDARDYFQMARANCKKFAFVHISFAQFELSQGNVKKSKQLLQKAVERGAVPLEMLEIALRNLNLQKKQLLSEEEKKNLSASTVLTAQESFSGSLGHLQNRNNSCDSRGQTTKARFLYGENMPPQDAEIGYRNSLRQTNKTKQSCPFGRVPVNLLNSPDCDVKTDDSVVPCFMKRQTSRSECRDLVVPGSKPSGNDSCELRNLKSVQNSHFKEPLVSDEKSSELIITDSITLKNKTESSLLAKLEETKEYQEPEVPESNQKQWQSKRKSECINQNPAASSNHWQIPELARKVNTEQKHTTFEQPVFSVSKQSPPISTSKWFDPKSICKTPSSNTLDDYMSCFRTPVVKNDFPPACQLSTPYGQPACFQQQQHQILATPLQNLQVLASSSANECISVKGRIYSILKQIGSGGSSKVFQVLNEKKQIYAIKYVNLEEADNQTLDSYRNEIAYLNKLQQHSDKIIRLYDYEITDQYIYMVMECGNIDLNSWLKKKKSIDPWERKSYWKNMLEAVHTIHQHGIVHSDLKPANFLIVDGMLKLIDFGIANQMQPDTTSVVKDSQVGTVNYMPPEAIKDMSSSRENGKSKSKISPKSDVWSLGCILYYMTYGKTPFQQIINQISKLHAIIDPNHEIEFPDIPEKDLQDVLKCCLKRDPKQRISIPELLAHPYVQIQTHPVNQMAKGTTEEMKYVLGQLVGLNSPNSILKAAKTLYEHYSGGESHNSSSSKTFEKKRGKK
# [24] = target: Calcium/calmodulin-dependent protein kinase kinase 2 (Homo sapiens) (UniProt Q96RR4); experiment: Inhibition of CAMKK2 (unknown origin) assessed as residual activity at 1 uM relative to control
# [25] = system: MDA-MB-468; experiment: Antitumor activity against human MDA-MB-468 cells xenografted in BALB/c nude mouse assessed as tumor growth inhibition at 30 mg/kg, iv administered once daily for 21 days; format: functional; conditions: MDA-MB-468, 504 h, time 21 day, read-out: TGI
# [26] = Cmax in Sprague-Dawley rat at 2 mg/kg, iv measured upto 24 hrs by LC-MS/MS analysis; format: ADME, organism-based; design: time < 24 hrs, dose 2 mg/kg, route iv; conditions: in vivo
compound,measurement,setting,value
CCc1cccc(CC)c1N1CCn2cc(-c3nc(Nc4ccc(N5CCN(C(C)=O)CC5)cc4OC)nc4[nH]ncc34)cc2C1=O,Activity,[1],< 10%
same,IC50,[2],> 10 µM
same,Activity,[3],< 10%
same,Activity,[4],< 10%
same,inhibition in vivo at 60 mg/kg,[5],34%
same,Activity,[6],< 10%
same,Activity,[7],< 10%
same,microsomal CLint,[8],39.4 µL/min/mg
same,IC50,[9],> 10 µM
same,Activity,[10],< 10%
same,Activity,[11],< 10%
same,Activity,[12],< 10%
same,Activity,[13],< 10%
same,MRT inf,[14],1.23 h
same,AUC(0-t) at 24 h,[15],1050 ng·h/mL
same,Activity,[16],< 10%
same,Activity,[17],< 10%
same,remaining at 5 min,[18],82.7%
same,Activity,[19],< 10%
same,half-life,[20],1.05 h
same,Activity,[21],< 10%
same,Activity,[22],< 10%
same,IC50,[23],0.0026 µM
same,Activity,[24],< 10%
same,inhibition in vivo at 30 mg/kg,[25],21%
same,Cmax,[26],2920 ng/mL
